Data published in ChEMBL document CHEMBL5042519, “Design and synthesis of marine sesterterpene analogues as novel estrogen receptor α degraders for breast cancer treatment” (Eur J Med Chem, 2022).
Calls of active or inactive are those of the source. The calls are words filed in the database; no cut-off is given here.

System: MCF7
Assay: Inhibition of colony formation in human MCF7 cells at 2 uM measured after 9 days by crystal violet staining based assay relative to control
Assay type: functional, cell-based
Details: time 9.0 day

In the case of `CC1=CC(=O)[C@H]2/C(C=O)=C\C[C@H]3[C@@H]([C@@H](C)/C=C\C=C/C(=O)OCCOCCOCCOC(=O)CC45CC6CC(CC(C6)C4)C5)CC[C@]3(C)C[C@H]12`, the inhibition is reported as “Active”.
